Results reported in patent US10894786B2, “Substituted pyrazole derivatives as selective CDK12/13 inhibitors” (Aurigene Discovery Technologies Limited, priority 2018, dated 2021).
Read-outs that look alike come from different tables or passages of the source.

How the values were obtained:
[1] = biological target: CDK13 (Homo sapiens (Human), UniProt Q14004); assay: Biochemical assay for CDK13, LanthaScreen Eu Kinase Binding Assay; details: for IC50: kinase tracer 236 100 nM; for Ratio CDK7/CDK13: ratio of IC50
Chain of CDK13 (Q14004 whole entry, looked up, species assumed): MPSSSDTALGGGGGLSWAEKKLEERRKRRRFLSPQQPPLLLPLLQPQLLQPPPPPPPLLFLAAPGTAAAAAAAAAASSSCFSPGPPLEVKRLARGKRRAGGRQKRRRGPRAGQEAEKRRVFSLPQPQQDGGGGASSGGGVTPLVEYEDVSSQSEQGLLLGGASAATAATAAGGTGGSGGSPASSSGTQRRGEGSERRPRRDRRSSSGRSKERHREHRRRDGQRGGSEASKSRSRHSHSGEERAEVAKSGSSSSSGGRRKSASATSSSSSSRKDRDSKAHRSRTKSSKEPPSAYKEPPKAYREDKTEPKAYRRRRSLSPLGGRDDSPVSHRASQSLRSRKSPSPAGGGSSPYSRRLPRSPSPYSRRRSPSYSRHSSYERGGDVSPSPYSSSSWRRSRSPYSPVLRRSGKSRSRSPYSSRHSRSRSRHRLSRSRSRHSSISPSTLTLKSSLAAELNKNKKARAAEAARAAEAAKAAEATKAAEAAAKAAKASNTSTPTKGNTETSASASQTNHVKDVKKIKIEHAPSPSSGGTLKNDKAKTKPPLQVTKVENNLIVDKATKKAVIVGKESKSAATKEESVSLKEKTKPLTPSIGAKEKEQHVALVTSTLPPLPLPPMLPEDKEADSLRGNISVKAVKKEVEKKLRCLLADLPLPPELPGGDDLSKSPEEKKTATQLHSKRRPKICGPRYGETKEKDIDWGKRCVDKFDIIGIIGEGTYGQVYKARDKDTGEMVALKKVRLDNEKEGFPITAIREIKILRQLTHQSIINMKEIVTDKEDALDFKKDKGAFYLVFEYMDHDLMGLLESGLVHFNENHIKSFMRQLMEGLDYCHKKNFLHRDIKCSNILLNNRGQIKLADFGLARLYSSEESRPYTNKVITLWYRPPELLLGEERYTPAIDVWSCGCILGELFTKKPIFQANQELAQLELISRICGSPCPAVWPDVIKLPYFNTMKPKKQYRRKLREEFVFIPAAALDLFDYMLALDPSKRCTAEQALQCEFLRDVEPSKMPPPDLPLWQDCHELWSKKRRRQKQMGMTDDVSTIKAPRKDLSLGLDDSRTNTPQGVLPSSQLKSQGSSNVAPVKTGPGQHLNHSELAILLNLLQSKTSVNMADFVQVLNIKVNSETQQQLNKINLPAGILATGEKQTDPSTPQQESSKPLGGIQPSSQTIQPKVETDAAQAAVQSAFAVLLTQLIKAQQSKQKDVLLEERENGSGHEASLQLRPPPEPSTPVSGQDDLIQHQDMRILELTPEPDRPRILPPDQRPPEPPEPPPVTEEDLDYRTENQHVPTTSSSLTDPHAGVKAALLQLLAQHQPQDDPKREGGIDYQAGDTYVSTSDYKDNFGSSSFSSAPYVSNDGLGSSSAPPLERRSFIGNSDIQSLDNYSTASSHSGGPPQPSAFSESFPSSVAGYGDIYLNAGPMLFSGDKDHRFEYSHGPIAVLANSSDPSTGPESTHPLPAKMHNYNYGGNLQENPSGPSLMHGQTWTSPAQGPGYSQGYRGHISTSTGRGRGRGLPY
Chain of CDK13 (O75909 whole entry partner, looked up, species assumed): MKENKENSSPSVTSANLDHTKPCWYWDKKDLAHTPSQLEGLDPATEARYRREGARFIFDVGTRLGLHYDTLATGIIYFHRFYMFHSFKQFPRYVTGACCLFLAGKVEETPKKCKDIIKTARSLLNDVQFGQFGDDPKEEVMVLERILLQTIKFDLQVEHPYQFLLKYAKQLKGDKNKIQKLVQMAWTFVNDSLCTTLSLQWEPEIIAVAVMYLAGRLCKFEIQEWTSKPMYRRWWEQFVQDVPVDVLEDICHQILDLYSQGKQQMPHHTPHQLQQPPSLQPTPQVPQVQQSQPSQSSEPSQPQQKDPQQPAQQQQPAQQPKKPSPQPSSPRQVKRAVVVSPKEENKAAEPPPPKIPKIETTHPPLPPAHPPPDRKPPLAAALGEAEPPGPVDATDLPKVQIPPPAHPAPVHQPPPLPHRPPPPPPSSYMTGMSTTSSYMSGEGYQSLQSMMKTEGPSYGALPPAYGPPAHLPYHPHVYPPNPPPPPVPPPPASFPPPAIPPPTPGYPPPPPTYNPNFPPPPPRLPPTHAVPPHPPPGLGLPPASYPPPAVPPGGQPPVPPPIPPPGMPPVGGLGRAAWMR
Description: Binding of an inhibitor to the kinase competes for binding with the tracer, resulting in a loss of FRET signal.

[2] = biological target: T1, CDK12 (Homo sapiens (Human), UniProt Q9NYV4); assay: Biochemical assay for CDK12 (Kd determination), kinase-tagged phage/qPCR competition binding
Experimental: Kinase-tagged T7 phage strains were grown in parallel in 24-well blocks in an E. coli host derived from the BL21 strain. E. coli were grown to log-phase and infected with T7 phage from a frozen stock (multiplicity of infection=0.4) and incubated with shaking at 32° C. until lysis (90-150 minutes). The lysates were centrifuged (6,000×g) and filtered (0.2 μm) to remove cell debris. The remaining kinases were produced in HEK-293 cells and subsequently tagged with DNA for qPCR detection. […] The liganded beads were blocked with excess biotin and washed with blocking buffer (SeaBlock (Pierce), 1% BSA, 0.05% Tween 20, 1 mM DTT) to remove unbound ligand and to reduce non-specific phage binding. […] Test compounds were prepared as 40× stocks in 100% DMSO and directly diluted into the assay. All reactions were performed in polypropylene 384-well plates in a final volume of 0.02 ml. […] The kinase concentration in the eluates was measured by qPCR.
Target sequence in this assay (Q9NYV4 whole entry, species assumed): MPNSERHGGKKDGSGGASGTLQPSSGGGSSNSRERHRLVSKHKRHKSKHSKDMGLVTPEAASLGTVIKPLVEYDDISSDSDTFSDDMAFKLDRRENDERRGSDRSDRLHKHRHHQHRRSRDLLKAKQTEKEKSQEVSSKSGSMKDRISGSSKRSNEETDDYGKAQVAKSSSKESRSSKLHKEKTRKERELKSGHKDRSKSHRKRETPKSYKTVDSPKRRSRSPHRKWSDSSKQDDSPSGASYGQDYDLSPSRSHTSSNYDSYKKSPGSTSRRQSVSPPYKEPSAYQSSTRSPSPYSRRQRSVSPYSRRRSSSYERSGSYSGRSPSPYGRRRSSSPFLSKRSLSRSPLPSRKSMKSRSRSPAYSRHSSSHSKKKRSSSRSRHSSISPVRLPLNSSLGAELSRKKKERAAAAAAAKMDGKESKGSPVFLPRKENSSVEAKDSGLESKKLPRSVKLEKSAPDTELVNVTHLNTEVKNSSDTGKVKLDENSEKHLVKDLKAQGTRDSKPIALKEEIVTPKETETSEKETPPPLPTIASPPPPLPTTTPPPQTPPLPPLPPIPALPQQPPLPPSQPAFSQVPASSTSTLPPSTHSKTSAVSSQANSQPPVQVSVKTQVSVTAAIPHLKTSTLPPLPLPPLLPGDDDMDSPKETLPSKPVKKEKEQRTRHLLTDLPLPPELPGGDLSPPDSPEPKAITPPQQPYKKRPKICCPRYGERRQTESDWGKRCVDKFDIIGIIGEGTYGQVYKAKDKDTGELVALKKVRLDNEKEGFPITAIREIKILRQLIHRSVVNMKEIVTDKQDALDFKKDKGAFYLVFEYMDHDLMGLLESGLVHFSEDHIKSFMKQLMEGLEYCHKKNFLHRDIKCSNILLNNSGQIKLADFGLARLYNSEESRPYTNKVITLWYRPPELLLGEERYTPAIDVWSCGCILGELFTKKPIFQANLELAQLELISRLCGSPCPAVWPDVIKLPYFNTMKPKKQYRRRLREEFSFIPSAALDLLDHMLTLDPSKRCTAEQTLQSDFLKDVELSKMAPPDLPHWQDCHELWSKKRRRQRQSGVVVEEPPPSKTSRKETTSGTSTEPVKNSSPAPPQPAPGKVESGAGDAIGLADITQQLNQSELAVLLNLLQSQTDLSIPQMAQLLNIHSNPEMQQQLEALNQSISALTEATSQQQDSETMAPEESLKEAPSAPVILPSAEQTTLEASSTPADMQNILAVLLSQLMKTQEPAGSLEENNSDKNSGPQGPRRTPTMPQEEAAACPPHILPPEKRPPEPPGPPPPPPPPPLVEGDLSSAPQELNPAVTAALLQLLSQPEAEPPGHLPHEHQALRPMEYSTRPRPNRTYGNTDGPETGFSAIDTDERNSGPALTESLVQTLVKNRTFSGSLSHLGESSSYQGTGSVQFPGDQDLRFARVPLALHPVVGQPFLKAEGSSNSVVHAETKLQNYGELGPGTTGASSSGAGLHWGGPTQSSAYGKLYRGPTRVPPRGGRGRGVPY

[3] = biological target: T1, CDK12; assay: Biochemical assay for CDK12 (IC50 determination), LANCE TR-FRET; details: for IC50: ATP 100 μM, 60 min pre-incubation
Experimental: The inhibitory activity of the test compounds was assessed by the LANCE TR-FRET assay, which detects the ATP-dependent phosphorylation of an ULight-4E-BP1 (Thr37/Thr46) substrate peptide (100 nM) by CDK12 (30 nM). Briefly, the enzyme reaction was run in reaction buffer (25 mM HEPES (pH 7.5), 10 mM MgCl2, 0.01% BSA, 0.01% Triton x, 1 mM DTT). The assay was performed in 384-well plate format. The end concentration of the ATP substrate was 100 μM, and that of the ULight-4E-BP1 (Thr37/Thr46) substrate peptide was 100 nM, and of CDK12 was 30 nM. Pre-incubation of the compound and enzyme was performed for 60 min at room temperature. After 60 min incubation at room temperature, the reaction was terminated by the addition of 40 mM EDTA and 0.5 nM Eu-labeled anti-phospho-eIF4E-binding protein (Thr37/46) antibody in LANCE detection buffer. […] The readout was calculated as (acceptor counts/donor counts)×1000. The IC50 values were derived by fitting a sigmoidal dose-response curve to a plot of assay readout over inhibitor concentration.
Target sequence in this assay (Q9NYV4 whole entry, looked up, species assumed): as the sequence (Q9NYV4 whole entry, species assumed) above
Target sequence in this assay (O75909 whole entry partner, looked up, species assumed): as the sequence (O75909 whole entry partner, looked up, species assumed) above

[4] = biological target: CDK7 (Homo sapiens (Human), UniProt P50613); assay: Biochemical assay for CDK7, LANCE TR-FRET; details: ATP 1 mM/100 μM, 60 min pre-incubation; read-out: CDK 7 IC50
Chain of CDK7 (P50613 whole entry, looked up, species assumed): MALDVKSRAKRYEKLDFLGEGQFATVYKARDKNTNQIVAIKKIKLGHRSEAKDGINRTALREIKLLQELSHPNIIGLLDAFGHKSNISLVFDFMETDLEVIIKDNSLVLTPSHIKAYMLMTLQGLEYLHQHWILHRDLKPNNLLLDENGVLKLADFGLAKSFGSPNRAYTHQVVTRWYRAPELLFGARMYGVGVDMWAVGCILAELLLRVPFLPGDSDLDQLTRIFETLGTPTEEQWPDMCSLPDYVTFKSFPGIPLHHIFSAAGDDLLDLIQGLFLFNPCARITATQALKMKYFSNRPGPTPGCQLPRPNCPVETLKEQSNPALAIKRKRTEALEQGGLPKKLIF
Chain of CDK7 (P51946 whole entry partner, looked up, species assumed): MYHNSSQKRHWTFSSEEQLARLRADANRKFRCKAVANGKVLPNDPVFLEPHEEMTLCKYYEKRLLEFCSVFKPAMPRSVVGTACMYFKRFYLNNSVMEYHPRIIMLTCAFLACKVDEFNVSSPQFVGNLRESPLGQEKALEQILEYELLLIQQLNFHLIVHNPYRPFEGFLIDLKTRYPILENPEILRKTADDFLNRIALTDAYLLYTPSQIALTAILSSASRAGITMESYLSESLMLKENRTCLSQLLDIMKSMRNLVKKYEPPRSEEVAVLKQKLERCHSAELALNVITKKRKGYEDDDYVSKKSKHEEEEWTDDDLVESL
Chain of CDK7 (P51948 whole entry partner, looked up, species assumed): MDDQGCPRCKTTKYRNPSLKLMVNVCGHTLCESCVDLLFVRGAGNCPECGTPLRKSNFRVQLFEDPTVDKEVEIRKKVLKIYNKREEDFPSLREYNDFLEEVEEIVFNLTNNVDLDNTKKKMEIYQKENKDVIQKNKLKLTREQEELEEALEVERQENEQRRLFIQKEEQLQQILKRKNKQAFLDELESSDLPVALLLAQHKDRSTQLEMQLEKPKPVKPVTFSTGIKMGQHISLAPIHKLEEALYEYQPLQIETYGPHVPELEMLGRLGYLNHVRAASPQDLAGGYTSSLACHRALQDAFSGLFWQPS
Experimental: The inhibitory activity of the test compounds was assessed by the LANCE TR-FRET assay, which detects the ATP-dependent phosphorylation of an ULight-myelin basic protein (MBP) substrate peptide (100 nM) by CDK7 (10 nM). Briefly, the enzyme reaction was run in reaction buffer (20 mM HEPES (pH 7.5), 10 mM MgCl2, 0.01% Triton x, 100 μM Sodium Orthovanadate, 1 mM DTT). The assay was performed in 384-well plate. The end concentration of the ATP substrate was 1 mM/100 μM, and that of the ULight-MBP substrate peptide was 100 nM, and of CDK7 was 10 nM. Pre-incubation of the compound and enzyme was performed for 60 min at room temperature. After 60 min incubation at room temperature, the reaction was terminated by the addition of 40 mM EDTA and 1 nM Eu-labeled anti-phospho-MBP-binding protein antibody in the buffer. […] The readout was calculated as (acceptor counts/donor counts)×1000. The IC50 values were derived by fitting a sigmoidal dose-response curve to a plot of assay readout over inhibitor concentration.

| Kd [2] | IC50 [3] | Ratio CDK7/CDK12 ([3]; ratio of IC50) | Compound | IC50 [1] | Ratio CDK7/CDK13 [1] | IC50 [4] | Ratio CDK7/CDK12 [3] |
| --- | --- | --- | --- | --- | --- | --- | --- |
| > 100 nM | – | – | C=CC(=O)N1CC=C(c2ccc(C(C(=O)Nc3cc(C4CC4)[nH]n3)C(C)C)cc2)CC1 (centres unmarked) [Compound 3, 2-(4-(1-acryloyl-1,2,3,6-tetrahydropyridin-4-yl)phenyl)-N-(5-cyclopropyl-1H-pyrazol-3-yl)-3-methylbutanamide] | 101 nM | 5.0 | 506 nM | – |
| 25 to 100 nM | 380 nM | – | C=CC(=O)NC1CC=C(c2ccc(C(C)C(=O)Nc3cc(C4CC4)[nH]n3)cc2)CC1 (centres unmarked) [Compound 8, N-(4′-(1 ((5-cyclopropyl-1H-pyrazol-3-yl)amino)-1-oxopropan-2-yl)-2,3,4,5-tetrahydro-[1,1′-biphenyl]-4-yl)acrylamide] | 19 nM | – | – | – |
| – | – | 7.42 | C=CC(=O)NC1CCC(c2ccc(C(C)C(=O)Nc3cc(C4CC4)n[nH]3)cc2)CC1 (centres unmarked) [Compound 10, N-(4-(4-(1-((5-cyclopropyl-1H-pyrazol-3-yl)amino)-1-oxopropan-2-yl)phenyl)cyclohexyl)acrylamide] | – | 305.11 | – | – |
| – | – | 3.57 | C=CC(=O)NC1CCC(c2ccc(C(C)C(=O)Nc3cc(C4CC4)n[nH]3)cc2)CC1 (centres unmarked) [Compound 11, N-(4-(4-(1-((5-cyclopropyl-1H-pyrazol-3-yl)amino)-1-oxopropan-2-yl)phenyl)cyclohexyl)acrylamide] | – | 81.02 | – | – |
| – | 646 nM | – | C[C@H](C(=O)Nc1cc(C2CC2)[nH]n1)c1ccc(C2=CCN(C(=O)/C=C/CN3CCOCC3)CC2)cc1 [Compound 16, (S,E)-N-(5-cyclopropyl-1H-pyrazol-3-yl)-2-(4-(1-(4-morpholinobut-2-enoyl)-1,2,3,6-tetrahydropyridin-4-yl)phenyl)propanamide] | 35 nM | – | – | – |
| < 25 nM | 235 nM | – | C=CC(=O)NC1CCN(c2ccc(C(C)C(=O)Nc3cc(C4CC4)[nH]n3)cc2)CC1 (centres unmarked) [Compound 21, N-(1-(4-(1-((5-cyclopropyl-1H-pyrazol-3-yl)amino)-1-oxopropan-2-yl)phenyl)piperidin-4-yl)acrylamide] | 73 nM | – | – | – |
| – | 41 nM | – | C=CC(=O)N1CCC=C(c2ccc(C(CC)C(=O)Nc3cc(C4CC4)[nH]n3)cn2)C1 (centres unmarked) [Compound 39, 2-(1′-acryloyl-1′,2′,5′,6′-tetrahydro-[2,3′-bipyridin]-5-yl)-N-(5-cyclopropyl-1H-pyrazol-3-yl)butanamide] | 93 nM | – | – | – |
| – | 178 nM | – | C=CC(=O)N1CCC=C(c2ccc(C(C(=O)Nc3cc(C4CC4)[nH]n3)C(C)C)cn2)C1 (centres unmarked) [Compound 43, 2-(1′-acryloyl-1′,2′,5′,6′-tetrahydro-[2,3′-bipyridin]-5-yl)-N-(5-cyclopropyl-1H-pyrazol-3-yl)-3-methylbutanamide] | 54 nM | – | – | – |
| – | 94 nM | – | C/C=C/C(=O)N1CCC=C(c2ccc(CC(=O)Nc3cc(C4CC4)[nH]n3)cn2)C1 [Compound 54, (E)-2-(1′-(but-2-enoyl)-1′,2′,5′,6′-tetrahydro-[2,3′-bipyridin]-5-yl)-N-(5-cyclopropyl-1H-pyrazol-3-yl)acetamide] | 3 nM | – | – | – |
| – | 178 nM | – | CC(C)=CC(=O)N1CCC=C(c2ccc(CC(=O)Nc3cc(C4CC4)[nH]n3)cn2)C1 [Compound 55, N-(5-cyclopropyl-1H-pyrazol-3-yl)-2-(1′-(3-methylbut-2-enoyl)-1′,2′,5′,6′-tetrahydro-[2,3′-bipyridin]-5-yl)acetamide] | – | – | – | – |
| – | 140 nM | – | C=C(C)C(=O)N1CCC=C(c2ccc(CC(=O)Nc3cc(C4CC4)[nH]n3)cn2)C1 [Compound 57, N-(5-cyclopropy1-1H-pyrazol-3-yl)-2-(1′-methacryloyl-1′,2′,5′,6′-tetrahydro-[2,3′-bipyridin]-5-yl)acetamide] | 10 nM | – | – | – |
| – | 4 nM | – | N#CN1CC=C(c2ccc(CC(=O)Nc3cc(C4CC4)[nH]n3)cn2)CC1 [Compound 62, 2-(1′-cyano-1′,2′,3′,6′-tetrahydro-[2,4′-bipyridin]-5-yl)-N-(5-cyclopropyl-1H-pyrazol-3-yl)acetamide] | – | – | – | – |

| Compound | Kd [2] | IC50 [3] | Ratio CDK7/CDK12 ([3]; ratio of IC50) | IC50 [1] | Ratio CDK7/CDK13 [1] | IC50 [4] | Ratio CDK7/CDK12 [3] |
| --- | --- | --- | --- | --- | --- | --- | --- |
| C=CC(=O)N1CCN(c2ccc(C(C)C(=O)Nc3cc(C4CC4)[nH]n3)cc2)CC1 (single isomer, unassigned) [Compound 19, 2-(4-(4-acryloylpiperazin-1-yl)phenyl)-N-(5-cyclopropyl-1H-pyrazol-3-yl)propanamide] | > 100 nM | – | – | 5810 nM | – | – | – |
| C=CC(=O)N1CCC=C(c2ccc(C(C)C(=O)Nc3cc(C4CC4)[nH]n3)cn2)C1 (single isomer, unassigned) [Compound 36, 2-(1′-acryloyl-1′,2′,5′,6′-tetrahydro-[2,3′-bipyridin]-5-yl)-N-(5-cyclopropyl-1H-pyrazol-3-yl)propanamide] | 25 to 100 nM | 686 nM | – | 153 nM | – | – | – |
| C=CC(=O)N1CCC(c2ccc(C(C)C(=O)Nc3cc(C4CC4)[nH]n3)cn2)CC1 (centres unmarked) [Compound 13, 2-(6-(1-acryloylpiperidin-4-yl)pyridin-3-yl)-N-(5-cyclopropyl-1H-pyrazol-3-yl)propanamide] | – | 58 nM | – | 28 nM | 357.14 | > 10000 nM | 172.41 |
| C=CC(=O)N1CCN(c2ccc(C(C)C(=O)Nc3cc(C4CC4)[nH]n3)cc2)CC1 (centres unmarked) [Compound 18, 2-(4-(4-acryloylpiperazin-1-yl)phenyl)-N-(5-cyclopropyl-1H-pyrazol-3-yl)propanamide] | – | – | 9.75 | – | 198.46 | – | – |
| C=CC(=O)N1CC=C(c2ccc(C(C)C(=O)Nc3cc(C4CC4)[nH]n3)cn2)C1 (centres unmarked) [Compound 38, 2-(6-(1-acryloyl-2,5-dihydro-1H-pyrrol-3-yl)pyridin-3-yl)-N-(5-cyclopropyl-1H-pyrazol-3-yl)propanamide] | – | 34 nM | – | 100 nM | 10.1 | 1010 nM | 29.7 |
| C=CC(=O)N1CCCC(c2ccc(C(C)C(=O)Nc3cc(C4CC4)[nH]n3)cn2)C1 (centres unmarked) [Compound 41, 2-(6-(1-acryloylpiperidin-3-yl)pyridin-3-yl)-N-(5-cyclopropyl-1H-pyrazol-3-yl)propanamide] | – | 354 nM | – | 29 nM | 121.03 | 3510 nM | 9.91 |
| C=CC(=O)N1CCC=C(c2ccc(C(C)C(=O)Nc3cc(C4CC4)[nH]n3)cc2F)C1 (centres unmarked) [Compound 42, 2-(4-(1-acryloyl-1,2,5,6-tetrahydropyridin-3-yl)-3-fluorophenyl)-N-(5-cyclopropyl-1H-pyrazol-3-yl)propanamide] | – | 14 nM | – | 87 nM | 5.05 | 440 nM | 31.42 |
| C=CC(=O)N1CC=C(c2ccc(C(C)C(=O)Nc3cc(C4CC4)[nH]n3)cc2F)CC1 (centres unmarked) [Compound 45, 2-(4-(1-acryloyl-1,2,3,6-tetrahydropyridin-4-yl)-3-fluorophenyl)-N-(5-cyclopropyl-1H-pyrazol-3-yl)propanamide] | – | 445 nM | – | 260 nM | 22.15 | 5760 nM | 12.94 |
| C=CC(=O)N1CC=C(c2ccc(C(C)C(=O)Nc3cc(C4CC4)[nH]n3)cn2)C1 (centres unmarked) [Compound 47, 2-(6-(1-acryloyl-2,5-dihydro-1H-pyrrol-3-yl)pyridin-3-yl)-N-(5-cyclopropyl-1H-pyrazol-3-yl)propanamide] | – | 676 nM | – | 6 nM | – | – | – |
| CC#CC(=O)N1CC=C(c2ccc(C(C)C(=O)Nc3cc(C4CC4)[nH]n3)cn2)CC1 (centres unmarked) [Compound 51, 2-(1′-(but-2-ynoyl)-1′,2′,3′,6′-tetrahydro-[2,4′-bipyridin]-5-yl)-N-(5-cyclopropyl-1H-pyrazol-3-yl)propanamide] | – | 203 nM | – | 25 nM | 67.68 | 1690 nM | 8.33 |
